Reference: PMC8480901 (PLoS ONE, 2021)
Values joined by “and” are separate entries in the source; they are usually repeats but may differ in a detail not shown here. Equal values may be shown once.

Tested on: human PBMCs
Assay: LPS-induced cytokine and chemokine levels in human PBMC supernatant (Luminex, ELISA)
Format: cell-based
Conditions: for IL-1β % reduction / IL-1β [pg/mL], Mean / IL-1β [pg/mL], individual value / IL-6 % reduction / IL-6 [pg/mL], Mean / IL-6 [pg/mL], individual value / IL-8 % reduction / IL-8 [pg/mL], Mean / IL-8 [pg/mL], individual value / TNF-α % reduction / TNF-α [pg/mL], Mean / TNF-α [pg/mL], individual value: LPS-stimulated human PBMC supernatant

What does the source list for `C[C@@H]1C[C@H]2[C@@H]3CCC4=CC(=O)C=C[C@]4(C)[C@@]3(F)[C@@H](O)C[C@]2(C)[C@@]1(O)C(=O)CO` [Dexamethasone]?
IL-1β % reduction (0.0003 µM): -0.241%; IL-1β [pg/mL], Mean (0.0003 µM): 12816 pg/mL; IL-1β [pg/mL], individual value (0.0003 µM): 13584 pg/mL and 12048 pg/mL; IL-6 % reduction (0.0003 µM): 11%; IL-6 [pg/mL], Mean (0.0003 µM): 31175 pg/mL; IL-6 [pg/mL], individual value (0.0003 µM): 28443 pg/mL and 33908 pg/mL; IL-8 % reduction (0.0003 µM): 3.74%; IL-8 [pg/mL], Mean (0.0003 µM): 2934 pg/mL; IL-8 [pg/mL], individual value (0.0003 µM): 2852 pg/mL and 3016 pg/mL; TNF-α % reduction (0.0003 µM): -22%; TNF-α [pg/mL], Mean (0.0003 µM): 10856 pg/mL; TNF-α [pg/mL], individual value (0.0003 µM): 11484 pg/mL and 10228 pg/mL; IL-1β % reduction (0.001 µM): -2.29%; IL-1β [pg/mL], Mean (0.001 µM): 13078 pg/mL; IL-1β [pg/mL], individual value (0.001 µM): 12492 pg/mL and 13663 pg/mL; IL-6 % reduction (0.001 µM): 15%; IL-6 [pg/mL], Mean (0.001 µM): 29537 pg/mL; IL-6 [pg/mL], individual value (0.001 µM): 27758 pg/mL and 31316 pg/mL; IL-8 % reduction (0.001 µM): 7%; IL-8 [pg/mL], Mean (0.001 µM): 2887 pg/mL; IL-8 [pg/mL], individual value (0.001 µM): 2894 pg/mL and 2879 pg/mL; TNF-α % reduction (0.001 µM): 26%; TNF-α [pg/mL], Mean (0.001 µM): 6648 pg/mL; TNF-α [pg/mL], individual value (0.001 µM): 6422 pg/mL and 6874 pg/mL; IL-1β % reduction (0.003 µM): 3%; IL-1β [pg/mL], Mean (0.003 µM): 12382 pg/mL; IL-1β [pg/mL], individual value (0.003 µM): 12441 pg/mL and 12322 pg/mL; IL-6 % reduction (0.003 µM): 23%; IL-6 [pg/mL], Mean (0.003 µM): 26733 pg/mL; IL-6 [pg/mL], individual value (0.003 µM): 25302 pg/mL and 28163 pg/mL; IL-8 % reduction (0.003 µM): 16%; IL-8 [pg/mL], Mean (0.003 µM): 2739 pg/mL; IL-8 [pg/mL], individual value (0.003 µM): 2727 pg/mL and 2751 pg/mL; TNF-α % reduction (0.003 µM): 36%; TNF-α [pg/mL], Mean (0.003 µM): 5707 pg/mL; TNF-α [pg/mL], individual value (0.003 µM): 6398 pg/mL and 5017 pg/mL; IL-1β % reduction (0.01 µM): 12%; IL-1β [pg/mL], Mean (0.01 µM): 11212 pg/mL; IL-1β [pg/mL], individual value (0.01 µM): 11146 pg/mL and 11278 pg/mL; IL-6 % reduction (0.01 µM): 26%; IL-6 [pg/mL], Mean (0.01 µM): 25776 pg/mL; IL-6 [pg/mL], individual value (0.01 µM): 24216 pg/mL and 27336 pg/mL; IL-8 % reduction (0.01 µM): 23%; IL-8 [pg/mL], Mean (0.01 µM): 2621 pg/mL; IL-8 [pg/mL], individual value (0.01 µM): 2587 pg/mL and 2655 pg/mL; TNF-α % reduction (0.01 µM): 34%; TNF-α [pg/mL], Mean (0.01 µM): 5893 pg/mL; TNF-α [pg/mL], individual value (0.01 µM): 5929 pg/mL and 5857 pg/mL; IL-1β % reduction (0.03 µM): 36%; IL-1β [pg/mL], Mean (0.03 µM): 8206 pg/mL; IL-1β [pg/mL], individual value (0.03 µM): 8428 pg/mL and 7983 pg/mL; IL-6 % reduction (0.03 µM): 46%; IL-6 [pg/mL], Mean (0.03 µM): 19008 pg/mL; IL-6 [pg/mL], individual value (0.03 µM): 18119 pg/mL and 19897 pg/mL; IL-8 % reduction (0.03 µM): 24%; IL-8 [pg/mL], Mean (0.03 µM): 2601 pg/mL; IL-8 [pg/mL], individual value (0.03 µM): 2572 pg/mL and 2630 pg/mL; TNF-α % reduction (0.03 µM): 61%; TNF-α [pg/mL], Mean (0.03 µM): 3547 pg/mL; TNF-α [pg/mL], individual value (0.03 µM): 4619 pg/mL and 2475 pg/mL; IL-1β % reduction (0.1 µM): 49%; IL-1β [pg/mL], Mean (0.1 µM): 6554 pg/mL; IL-1β [pg/mL], individual value (0.1 µM): 6360 pg/mL and 6748 pg/mL; IL-6 % reduction (0.1 µM): 46%; IL-6 [pg/mL], Mean (0.1 µM): 18754 pg/mL; IL-6 [pg/mL], individual value (0.1 µM): 18604 pg/mL and 18905 pg/mL; IL-8 % reduction (0.1 µM): 39%; IL-8 [pg/mL], Mean (0.1 µM): 2364 pg/mL; IL-8 [pg/mL], individual value (0.1 µM): 2111 pg/mL and 2616 pg/mL; TNF-α % reduction (0.1 µM): 76%; TNF-α [pg/mL], Mean (0.1 µM): 2172 pg/mL; TNF-α [pg/mL], individual value (0.1 µM): 1964 pg/mL and 2380 pg/mL; IL-1β % reduction (0.3 µM): 47%; IL-1β [pg/mL], Mean (0.3 µM): 6792 pg/mL; IL-1β [pg/mL], individual value (0.3 µM): 7094 pg/mL and 6491 pg/mL; IL-6 % reduction (0.3 µM): 53%; IL-6 [pg/mL], Mean (0.3 µM): 16544 pg/mL; IL-6 [pg/mL], individual value (0.3 µM): 15027 pg/mL and 18061 pg/mL; IL-8 % reduction (0.3 µM): 26%; IL-8 [pg/mL], Mean (0.3 µM): 2569 pg/mL; IL-8 [pg/mL], individual value (0.3 µM): 2679 pg/mL and 2458 pg/mL; TNF-α % reduction (0.3 µM): 67%; TNF-α [pg/mL], Mean (0.3 µM): 2969 pg/mL; TNF-α [pg/mL], individual value (0.3 µM): 3059 pg/mL and 2880 pg/mL; IL-1β % reduction (1 µM): 47%; IL-1β [pg/mL], Mean (1 µM): 6720 pg/mL; IL-1β [pg/mL], individual value (1 µM): 7115 pg/mL and 6325 pg/mL; IL-6 % reduction (1 µM): 53%; IL-6 [pg/mL], Mean (1 µM): 16339 pg/mL; IL-6 [pg/mL], individual value (1 µM): 14576 pg/mL and 18103 pg/mL; IL-8 % reduction (1 µM): 46%; IL-8 [pg/mL], Mean (1 µM): 2244 pg/mL; IL-8 [pg/mL], individual value (1 µM): 2290 pg/mL and 2198 pg/mL; TNF-α % reduction (1 µM): 74%; TNF-α [pg/mL], Mean (1 µM): 2402 pg/mL; TNF-α [pg/mL], individual value (1 µM): 1732 pg/mL and 3073 pg/mL; all measured LPS-induced cytokines and chemokines in supernatant (human PBMCs, 0.0003-1 µM): dose-dependent reductions
